From patent EP0036269A1, “Substituted benzamides” (BEECHAM GROUP PLC, priority 1980, dated 1981)
Where two headings read alike, the source gives them in different places.

What was measured:
Assay type in all cases: in vivo
[1] = system: apomorphine induced stereotypy; test: Inhibition of apomorphine-induced biting in the rat; settings: apomorphine 5 mg/kg sc, compounds administered subcutaneously 15 minutes after apomorphine, stereotypy scored for 90 mins
Protocol: (§1) Compounds were also tested for their ability to inhibit apomorphine induced stereotypy in rodents. Inactivity in these tests may be indicative of a low propensity to produce extra pyramidal side effects in man. The tests used were as follows.
Apomorphine 5 mg/kg sc induces a stereotypic gnawing behaviour in rats which can be measured by a subjective scoring system; score O - animal behaving normally; score 1 - increased locomotion activity with occassional sniffing and licking; score 2 - persistent licking of the bars of the cage with occassional biting; score 3 - more sustained biting; score 4 - intense biting at a particular part of the cage, animal no longer moving about.
Animals are individually placed in wire cages and after being allowed to become acclimatised are injected with apomorphine 5 mg/kg sc. Stereotypy is scored at 10 min intervals for 90 mins after apomorphine. Compounds are administered subcutaneously 15 minutes after the apomorphine.

[2] = system: intra-gastric pressure in the rat; test: Increase in intragastric pressure in the rat; settings: conscious restrained starved rats, 40 minute period after administration; for minimal effective dose: Rattus norvegicus, po, 40 min, read-out: minimum dose for activity
Protocol: The compounds of the Examples were tested for pharmacological activity in increasing intra-gastric pressure in the rat. Intragastric pressure changes were recorded from previously starved conscious and restrained rats using a fluid filled catheter inserted into the lumen of the stomach via a permanent gastric fistula. The catheter was connected to a physiological pressure transducer and pressure changes recorded on a hot wire pen recorder. In each animal a pre-dose period of 40 minutes was allowed to obtain a measure of spontaneous activity. An index of activity was obtained by measuring the average height of pressure waves during 10 minute periods. Values for 4 such periods were obtained during assessment of spontaneous activity and for the 40 minute period after the administration of the Compounds. Student "t" test was applied to the difference in average values obtained for spontaneous and post compound activity.

[3] = system: apomorphine induced stereotypy; test: Inhibition of apomorphine-induced climbing in the mouse; settings: for ED50: sc, inhibition of climbing induced by apomorphine 1 mg/kg sc
Protocol: as §1
This test is based on that described by Protain, P. et al (1976) Psychopharmacol. 50, 1-6.
Apomorphine 1 mg/kg sc induced mice to climb the wall of a wire cage (inverted food hopper - 11 x 7.5 x 18 cm high). Mice acclimatised in their home cages in groups of 5 are placed under the hoppers immediately after the injection of apomorphine 1 mg/kg SC. At 10, 20 and 30 minutes after injection climbing behaviour scored. The mice are observed for 30 seconds and scored according to the position in which they spend the majority of time; score O - four paws on floor of cage; score 1 - 2 paws only on walls; score 2 - all four paws on wall of cage.
The scores at all 3 times for each mouse are summed for apomorphine only and for apomorphine plus compound groups of mice

Structure (SMILES)	Inhibition of apomorphine-induced biting [1]	also measured
COc1cc(N)c(Cl)cc1C(=O)NCC1CCCC2CCCCN2C1 (racemic) [Example 8, (±) 4-Amino-5-chloro-2-methoxy-N-[3'-(1'-azabicyclo[5,4, O]-hendecyl-methyl)]-benzamide]	inactive	
COc1cc(N)c(Cl)cc1C(=O)NCC1CC2CCCCN2C1 (racemic) [Example 12, (±) 4-Amino-5-chloro-2-methoxy-N-(2'-indolizidinyl-methyl)-benzamide]	inactive	
COc1cc(N)c(Cl)cc1C(=O)NCC1CCC2CCCCN2C1 (single isomer, unassigned) [2 (Isomer B), (±) 4-Amino-5-chloro-2-methoxy-N-(3'-quinolizidinyl-methyl)-benzamide]	inactive	minimum dose for activity ([2]; Subcut): 5.0 mg/kg; minimum dose for activity ([2]; oral): 5.0 mg/kg
COc1cc(N)c(Cl)cc1C(=O)NCC1CCCN2CCCCC12 (single isomer, unassigned) [4 (Isomer B), (±) 4-Amino-5-chloro-2-methoxy-N-(1'-guinolizidinyl-methyl)-benzamide]	inactive	
COc1cc(N)c(Cl)cc1C(=O)NCC1CCC2CCCCN21 (single isomer, unassigned) [14 (Isomer B), (±) 4-Amino-5-chloro-2-methoxy-N-(3'-indolizidiny-methyl)-benzamide]	inactive	ED50 [3]: 15 mg/kg; minimal effective dose ([2]; Subcut): 0.2 mg/kg
COc1cc(N)c(Cl)cc1C(=O)NCC1CCC2CCCCN2C1 (single isomer, unassigned) [Example 2 (Isomer A), (±) 4-Amino-5-chloro-2-methoxy-N-(3'-quinolizidinyl-methyl)-benzamide]	inactive	Inhibition of climbing ([3]; apomorphine 1 mg/kg sc, climbing scored at 10, 20 and 30 minutes): inactive; minimal effective dose ([2]; oral): 5 mg/kg; minimum dose for activity ([2]; Subcut): 0.2 mg/kg
COc1cc(N)c(Cl)cc1C(=O)NCC1CCCN2CCCCC12 (single isomer, unassigned) [Example 4 (Isomer A), (±) 4-Amino-5-chloro-2-methoxy-N-(1'-guinolizidinyl-methyl)-benzamide]	inactive	
COc1cc(N)c(Cl)cc1C(=O)NCC1CCC2CCCCN21 (single isomer, unassigned) [Example 14 (Isomer A), (±) 4-Amino-5-chloro-2-methoxy-N-(3'-indolizidiny-methyl)-benzamide]	inactive	ED50 ([3]; Mus musculus, read-out: ED50): 20 mg/kg
